Laboratory results reported in US6451784B1 (priority 1996, dated 2002).
“Also recorded” adds a separate entry of the source. Like-named read-outs stand apart in the source and are kept apart here. Starred links: 1 amine or outer side, 2 acyl side, 3 side chain; linkers in the order of their positions; H or OH if unused. Positions of bridges follow the written chain, without caps; N, C: chain ends. Non-standard residues stand in square brackets, D forms with d. Residues, ends and D or L forms follow the SMILES beside them. Chains are numbered I, II in the order given. Actinocin(9to1) = Cc1c2oc3c(C)ccc(C(=O)[*:1])c3nc-2c(C(=O)[*:2])c(N)c1=O; NMeV = CN[C@H](C(=O)O)C(C)C; Sar = CNCC(=O)O

What was measured:
neoplastic lung disease = tested on: neoplastic lung disease; parameters: species or system dogs; conditions: dog, in vivo
[1] = tested on: gross metastatic disease, micrometastatic hemangiosarcoma or micrometastatic primary lung cancer; parameters: species or system dogs; conditions: dog, in vivo
[2] = dog, in vivo
patients = conditions: cited from earlier work
[3] = share of drug bound in a protein-containing solution; cited from earlier work
rats = conditions: rat, in vivo
[4] = tested on: 68-2 Adenocarcinoma Cells
healthy animals = conditions: in vivo; cited from earlier work
mice = conditions: intraperitoneal pretreatment, bleomycin subcutaneous; cited from earlier work

O=P1(N(CCCl)CCCl)NCCCO1 (stereo not drawn) [CTX]
Results (neoplastic lung disease): SD lung

COc1cccc2c1C(=O)c1c(O)c3c(c(O)c1C2=O)C[C@@](O)(C(=O)CO)C[C@@H]3O[C@H]1C[C@H](N)[C@H](O)[C@H](C)O1 [Doxorubicin, doxorubicin]
Development of lung metastases (neoplastic lung disease): no metastases developed in the lung for four months | Outcome after inhalation treatment [1]: alive with no evidence of disease 81 days later | Disease in the lung ([1]; iv): no evidence of disease in the lung | Clearance from the lung after pulmonary administration [2]: not rapidly cleared from the lung | Damage to the respiratory tract at necropsy [2]: no damage to the respiratory tract was observed | Peak blood levels following inhalation exposure compared with IV [2]: over an order of magnitude lower | Systemic doxorubicin level after about 4 hours, IV relative to pulmonary route [2]: about six times higher | Initial plasma concentration at 2 minutes, IV relative to pulmonary route ([2]; iv, 1 mg/kg): about 1.5 orders of magnitude | Pulmonary toxicity of the IV administered drug (patients): no indication of pulmonary toxicity

CCc1c2c(nc3ccc(OC(=O)N4CCC(N5CCCCC5)CC4)cc13)-c1cc3c(c(=O)n1C2)COC(=O)[C@]3(O)CC [Irinotecan]
Pulmonary toxicity of the IV administered drug (patients): no mention is made of pulmonary toxicity

Nc1ccn([C@@H]2O[C@H](CO)[C@@H](O)[C@@H]2O)c(=O)n1 [cytarabine]
Protein binding affinity [3]: 13%

CC(=O)O[C@H]1C(=O)[C@@]2(C)[C@H]([C@H](OC(=O)c3ccccc3)[C@]3(O)C[C@H](OC(=O)[C@H](O)[C@@H](NC(=O)c4ccccc4)c4ccccc4)C(C)=C1C3(C)C)[C@]1(OC(C)=O)CO[C@@H]1C[C@@H]2O [Taxol, Paclitaxel]
Results (neoplastic lung disease): SD (4 weeks) lung; also recorded: PD lung, Rx discontinued | Outcome after inhalation treatment [1]: no evidence of disease | Results [1]: SD (PR after; also recorded: PD (PR noted; also recorded: Alive and NED | Pulmonary toxicity of the IV administered drug (patients): pulmonary toxicity is not listed

CC(=O)[C@]1(O)Cc2c(O)c3c(c(O)c2[C@@H](O[C@H]2C[C@H](N)[C@H](O)[C@H](C)O2)C1)C(=O)c1ccccc1C3=O [Idarubicin]
Pulmonary toxicity of the IV administered drug (patients): no mention is made of pulmonary toxicity

COc1cc([C@@H]2c3cc4c(cc3[C@@H](O[C@@H]3O[C@@H]5CO[C@@H](C)O[C@H]5[C@H](O)[C@H]3O)[C@H]3COC(=O)[C@H]23)OCO4)cc(OC)c1O [Etoposide, etoposide]
Pulmonary toxicity of the IV administered drug (patients): no indication of pulmonary toxicity

carboplatin
Tolerated dose when given by inhalation (rats): up to 1.9 mg/m^2 | Mean Lung Weight ([4]; Group 2, IV 180 mg/m^2, Day 61): 1.37 ± 0.16 g | Mean Percentage of Lung W/Tumors ([4]; Group 2, IV 180 mg/m^2, Day 61): 10 ± 0% | Mean Lung Weight ([4]; Group 3, IV 300 mg/m^2, Day 61): 1.37 ± 0.11 g | Mean Percentage of Lung W/Tumors ([4]; Group 3, IV 300 mg/m^2, Day 61): 10 ± 0% | Lung covered by tumor ([4]; rat, IV 180 or 300 mg/m^2, Day 61): 10% | Average lung and lung tumor weight ([4]; rat, both low (180 mg/m^2) and high (300 mg/m^2) dose, Day 61): 1.37 gram

Cc1c2oc3c(C)ccc(C(=O)N[C@@H]4C(=O)N[C@H](C(C)C)C(=O)N5CCC[C@H]5C(=O)N(C)CC(=O)N(C)[C@@H](C(C)C)C(=O)O[C@@H]4C)c3nc-2c(C(=O)N[C@@H]2C(=O)N[C@H](C(C)C)C(=O)N3CCC[C@H]3C(=O)N(C)CC(=O)N(C)[C@@H](C(C)C)C(=O)O[C@@H]2C)c(N)c1=O [Dactinomycin] (I: T[dV]P[Sar][NMeV] / II: T[dV]P[Sar][NMeV]; ester I:1-I:C, II:1-II:C; linker I:N-II:N via Actinocin(9to1))
Pulmonary toxicity of the IV administered drug (patients): no mention is made of pulmonary toxicity

CC[C@]1(O)C[C@H]2CN(CCc3c([nH]c4ccccc34)[C@@](C(=O)OC)(c3cc4c(cc3OC)N(C=O)[C@H]3[C@@](O)(C(=O)OC)[C@H](OC(C)=O)[C@]5(CC)C=CCN6CC[C@]43[C@@H]65)C2)C1 [Vincristine, vincristine]
Pulmonary toxicity of the IV administered drug (patients): no pulmonary toxicity noted

CO[C@@]12[C@H](COC(N)=O)C3=C(C(=O)C(C)=C(N)C3=O)N1C[C@@H]1N[C@@H]12 [Mutamycin, mitomycin]
Toxic effects to the respiratory tract (healthy animals): the most severe results

O=P1(N(CCCl)CCCl)NCCCO1 (stereo not drawn) [Cyclophosphamide, cyclophosphamide]
Toxic effects to the respiratory tract (healthy animals): only mild inflammation

C[C@@H](CN1CC(=O)NC(=O)C1)N1CC(=O)NC(=O)C1 [dexrazoxane]
Protection against bleomycin-induced pulmonary damage (mice): reduced pulmonary alterations particularly fibrosis
